Reference: patent USRE37781E1, “Substituted cyclic carbonyls and derivatives thereof useful as retroviral protease inhibitors” (DuPont Pharmaceuticals Company, priority 1991, dated 2002)
pKi: −log10 of the molar value. Converted amounts (≈) assume the structure as drawn. “And” between values parts separate entries of the source, which are not always exact repeats. Equal entries are not always repeated. Where two headings read alike, the source gives them in different places.

Legend:
[1] = target: single-chain tethered dimer of HIV protease (Human immunodeficiency virus 1, UniProt P04585); experiment: biochemical; type: biochemical
Procedure: HIV Protease Inhibition Assay—HPLC Method
Active protease was prepared as described therein by extraction with 67% acetic acid, dilution 33-fold with water, dialysis against water and then against a “refolding buffer” consisting of 20 mM MES, 1 mM dithiothreitol and 10% glycerol. Protease was stored as a stock preparation at 10 uM in refolding buffer.
Substrate: Peptide of sequence: aminobenzoyl-Ala-Thr-His-Gln-Val-Tyr-Phe(NO2)-Val-Arg-Lys-Ala containing p-nitrophenylalanine, was prepared by solid phase synthesis as previously described Cheng et al., op.cit. Stock solutions of 2 mM substrate were prepared in DMSO.
Inhibitory compounds were dissolved in sufficient DMSO to make 3 mM stock solutions. All further dilutions were prepared in “assay buffer”: 1M NaCl, 50 mM MES, pH 5.5, 1 mM EDTA, 1 mM DTT, […] glycerol.
Enzyme reaction: In a 2 ml screw-cap centrifuge tube were added 50 ul protease (final concentration 0.25 nM) and 0.1 ml inhibitory compound (final concentration […]). After 15 min preincubation at room temperature, the reaction was started with the addition of 0.05 ml substrate (final concentration 5 uM). Incubation was carried out at 30 C. for 1 hr. The reaction was stopped with 1 ml 0.1M ammonium hydroxide.
HPLC measurement of product formation: The product (aminobenzoyl-Ala-Thr-His-Gln-Val-Tyr) was separated from substrate on a Pharmacia MonoQ anion exchange column. The injection volume was 0.2 ml. The mobile phases were: A (20 mM trisHCl, pH 9.0, 0.02% sodium Azide, 10% acetonitrile), B (20 mM tris HCl, pH 9.0, 0.02% sodium azide, 0.5M ammonium formate, 10% acetonitrile). The mobile phases were pumped at 1 ml/min, with a gradient from 0 to 30% B in 5 min, 100% B for 4 min to wash the column, and a re-equilibration for 4 min. The retention time of the product was 3.6 min. Detection with a Shimadzu model RF535 fluorescence monitor was at 330 nm (excitation) and 430 (emission).

HIV-1 (RF) in MT-2 cells = experiment: microbe, parasite or virus in culture; type: cell-based
Method in brief: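 HIV-1 laboratory strains (RF, MN, IIIB) grown in H9 cells in RPMI 1640 with 5% FCS; infections in MT-2 cells. Viral RNA quantified by hybridization with biotinylated gag/pol capture probes on streptavidin plates and alkaline phosphatase-conjugated reporter probes; BH10 gag-pol in vitro transcripts serve as RNA standards.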

[2] = Human immunodeficiency virus 1, MT2, HIV RNA assay, HIV-1 infected MT-2 cells, class symbols, read-out: IC90
[3] = HIV protease inhibition, class symbols, read-out: Ki
[4] = HIV RNA assay, HIV-1 infected MT-2 cells, class symbols

Compound | pKi [1] | melting point | IC90 (HIV-1 (RF) in MT-2 cells; [2]) [µg/mL] | IC90 (HIV-1 (RF) in MT-2 cells; Human immunodeficiency virus 1, MT2) [µg/mL] | pKi [1, 3] | IC90 (HIV-1 (RF) in MT-2 cells; [4])
O=C1N(Cc2ccc3ccccc3c2)C(Cc2ccccc2)C(O)C(O)C(Cc2ccccc2)N1CC1CCCC1 (centres unmarked) [Example 4L] | > 8.00 | 89 to 92 °C | < 10 |  |  | 
O=C1N(Cc2ccccc2)C(Cc2ccccc2)C(O)C(O)C(Cc2ccccc2)N1Cc1ccc2ccccc2c1 (centres unmarked) [Example 4M] | > 8.00 | 90 to 92 °C | < 10 |  |  | 
O=C1N(Cc2ccc3ccccc3c2)C(Cc2ccccc2)C(O)C(O)C(Cc2ccccc2)N1CC1CC1 (centres unmarked) [Example 4K] | > 8.00 | 175 to 178 °C | < 10 |  |  | 
O=C1N(Cc2c(F)c(F)c(F)c(F)c2F)C(Cc2ccccc2)C(O)C(O)C(Cc2ccccc2)N1Cc1c(F)c(F)c(F)c(F)c1F (centres unmarked) [Example 4J] | < 6.00 | 193 to 195 °C | < 10 |  |  | 
O=C1N(Cc2cccc(Cl)c2)C(Cc2ccccc2)C(O)C(O)C(Cc2ccccc2)N1Cc1cccc(Cl)c1 (centres unmarked) [Example 6X] | > 8.00 | 210.3 °C | < 10 |  |  | 
CCN1C(=O)N(Cc2ccccc2)C(Cc2ccccc2)C(O)C(O)C1Cc1ccccc1 (centres unmarked) [Example 4A] | > 8.00 | 190 to 193 °C | < 10 |  |  | 
O=C1N(Cc2cccc([N+](=O)[O-])c2)C(Cc2ccccc2)C(O)C(O)C(Cc2ccccc2)N1Cc1cccc([N+](=O)[O-])c1 (centres unmarked) [Example 6Z] | > 8.00 | 248.3 °C |  | < 10 |  | 
O=C1N(Cc2ccc(F)cc2)C(Cc2ccccc2)C(O)C(O)C(Cc2ccccc2)N1Cc1ccc2ccccc2c1 (centres unmarked) [Example 5Q] | > 8.00 | 105 to 107 °C | < 10 |  |  | 
CC(C)(C)CCN1C(=O)N(CCC(C)(C)C)C(Cc2ccccc2)C(O)C(O)C1Cc1ccccc1 (centres unmarked) [Example 3P] | 6.00 to 8.00 | 242 to 245 °C | > 100 |  |  | 
C=CCN1C(=O)N(Cc2ccc3ccccc3c2)C(Cc2ccccc2)C(O)C(O)C1Cc1ccccc1 (centres unmarked) [Example 4S] | > 8.00 | 72 to 74 °C | < 10 |  |  | 
CC(C)N1C(=O)N(Cc2cccc(O)c2)C(Cc2ccccc2)C(O)C(O)C1Cc1ccccc1 (centres unmarked) [Example 5Z] | > 8.00 | 212 to 213 °C | < 10 |  |  | 
O=C1N(Cc2ccc(-c3ccccc3)cc2)C(Cc2ccccc2)C(O)C(O)C(Cc2ccccc2)N1Cc1ccc(-c2ccccc2)cc1 (centres unmarked) [Example 4R] | 6.00 to 8.00 | 109 to 110 °C |  |  |  | 
O=C1N(Cc2ccc3ccccc3c2)C(Cc2ccccc2)C(O)C(O)C(Cc2ccccc2)N1Cc1ccccn1 (centres unmarked) [Example 4Y] | 6.00 to 8.00 | 165 to 166 °C | < 10 |  |  | 
COc1ccccc1CN1C(=O)N(Cc2ccccc2OC)C(Cc2ccccc2)C(O)C(O)C1Cc1ccccc1 (centres unmarked) [Example 6ZB] | < 6.00 |  | 10 to 100 (≈ 17.6 to 176 µM) |  |  | 
O=C1N(Cc2ccc(O)c(O)c2)C(Cc2ccccc2)C(O)C(O)C(Cc2ccccc2)N1Cc1ccc(O)c(O)c1 (centres unmarked) [Example 6ZQ] | > 8.00 |  | < 10 |  |  | 
O=C1N(Cc2ccncc2)C(Cc2ccccc2)C(O)C(O)C(Cc2ccccc2)N1CC1CC1 (centres unmarked) [Example 4C] | > 8.00 |  | < 10 |  |  | 
O=C1N(Cc2ccccc2F)C(Cc2ccccc2)C(O)C(O)C(Cc2ccccc2)N1Cc1ccccc1F (centres unmarked) [Example 6P] | 6.00 to 8.00 |  | < 10 |  |  | 
O=C1N(Cc2ccccc2)C(Cc2ccccc2)C(O)C(O)C(Cc2ccccc2)N1CC1CCCC1 (centres unmarked) [Example 4E] |  |  |  |  | > 8.00 | +++ (+++=<10 μg/mL)
O=C1N(Cc2ccc3ccccc3c2)C(Cc2ccccc2)C(O)C(O)C(Cc2ccccc2)N1Cc1ccc2ccccc2c1 (centres unmarked) [Example 3U] | > 8.00 |  | < 10 |  |  | 
CN(C)CCN1C(=O)N(CCN(C)C)C(Cc2ccccc2)C(O)C(O)C1Cc1ccccc1 (centres unmarked) [Example 6N] |  |  |  |  | < 6.00 | + (+=>100 μg/mL)
O=C1N(Cc2cccc(Cl)c2)C(Cc2ccccc2)C(O)C(O)C(Cc2ccccc2)N1CC1CC1 (centres unmarked) [Example 6ZH] |  |  |  |  | > 8.00 | +++ (+++=<10 μg/mL)
O=C1N(Cc2cccc(O)c2)C(Cc2ccccc2)C(O)C(O)C(Cc2ccccc2)N1CC1CC1 (centres unmarked) [Example 6D] |  |  |  |  | > 8.00 | +++ (+++=<10 μg/mL)
C=CCN1C(=O)N(Cc2ccncc2)C(Cc2ccccc2)C(O)C(O)C1Cc1ccccc1 (centres unmarked) [Example 5E] | 6.00 to 8.00 |  | < 10 |  |  | 

Compound | pKi [1] | melting point | IC90 (HIV-1 (RF) in MT-2 cells; [2]) [µg/mL] | IC90 (HIV-1 (RF) in MT-2 cells; Human immunodeficiency virus 1, MT2) [µg/mL] | pKi [1, 3] | IC90 (HIV-1 (RF) in MT-2 cells; [4])
O=CNc1cccc(CN2C(=O)N(Cc3cccc(NC=O)c3)C(Cc3ccccc3)C(O)C(O)C2Cc2ccccc2)c1 (centres unmarked) [Example 6ZM] | > 8.00 |  | < 10 |  |  | 
CCCN1C(=O)N(Cc2ccccc2)C(Cc2ccccc2)C(O)C(O)C1Cc1ccccc1 (centres unmarked) [Example 4G] | > 8.00 |  | < 10 |  |  | 
O=C1N(Cc2ccc(F)c(F)c2)C(Cc2ccccc2)C(O)C(O)C(Cc2ccccc2)N1Cc1ccc(F)c(F)c1 (centres unmarked) [Example 6S] | > 8.00 |  | < 10 |  |  | 
O=C1N(CC=Cc2ccccc2)C(Cc2ccccc2)C(O)C(O)C(Cc2ccccc2)N1CC1CC1 (centres unmarked) [Example 4I] | > 8.00 |  | < 10 |  |  | 
O=C1N(Cc2cccnc2)C(Cc2ccccc2)C(O)C(O)C(Cc2ccccc2)N1CC1CC1 (centres unmarked) [Example 5G] |  |  |  |  | > 8.00 | +++ (+++=<10 μg/mL)
O=C1N(Cc2ccc(Cl)s2)C(Cc2ccccc2)C(O)C(O)C(Cc2ccccc2)N1Cc1ccc(Cl)s1 (centres unmarked) [Example 6F] |  |  |  |  | 6.00 to 8.00 | +++ (+++=<10 μg/mL)
CCCCN1C(=O)N(CC2CC2)C(Cc2ccccc2)C(O)C(O)C1Cc1ccccc1 (centres unmarked) [Example 3X] | > 8.00 |  | < 10 |  |  | 
O=C1N(Cc2ccccc2)C(Cc2ccccc2)C(O)C(O)C(Cc2ccccc2)N1Cc1ccncc1 (centres unmarked) [Example 4B] | > 8.00 |  | < 10 |  |  | 
Cc1cccc(CN2C(=O)N(Cc3cccc(C)c3)C(Cc3ccccc3)C(O)C(O)C2Cc2ccccc2)c1 (centres unmarked) [Example 6ZA] | > 8.00 |  | < 10 |  |  | 
O=C1N(Cc2cccc(OCc3ccccc3)c2)C(Cc2ccccc2)C(O)C(O)C(Cc2ccccc2)N1Cc1cccc(OCc2ccccc2)c1 (centres unmarked) [Example 5F] | 6.00 to 8.00 | 165 to 166 °C |  |  |  | 
CC(=O)Nc1cccc(CN2C(=O)N(Cc3cccc(NC(C)=O)c3)C(Cc3ccccc3)C(O)C(O)C2Cc2ccccc2)c1 (centres unmarked) [Example 6ZN] | > 8.00 |  | < 10 |  |  | 
CN(C)CCN1C(=O)N(CCN(C)C)C(Cc2ccccc2)C(O)C(O)C1Cc1ccccc1 (centres unmarked) [Example 6R] | < 6.00 |  | > 100 |  |  | 
O=C1N(CC2CCCC2)C(Cc2ccccc2)C(O)C(O)C(Cc2ccccc2)N1CC1CCCC1 (centres unmarked) [Example 6H] | > 8.00 |  | < 10 |  |  | 
CCCCN1C(=O)N(CC=C(C)C)C(Cc2ccccc2)C(O)C(O)C1Cc1ccccc1 (centres unmarked) [Example 6I] |  |  |  |  | > 8.00 | +++ (+++=<10 μg/mL)
O=C1N(Cc2ccccn2)C(Cc2ccccc2)C(O)C(O)C(Cc2ccccc2)N1CC1CC1 (centres unmarked) [Example 4N] |  |  |  |  | > 8.00 | +++ (+++=<10 μg/mL)
CC(C)N1C(=O)N(Cc2ccccn2)C(Cc2ccccc2)C(O)C(O)C1Cc1ccccc1 (centres unmarked) [Example 6L] | 6.00 to 8.00 |  | < 10 |  |  | 
O=C1N(Cc2cccnc2)C(Cc2ccccc2)C(O)C(O)C(Cc2ccccc2)N1Cc1cccnc1 (centres unmarked) [Example 5O] | > 8.00 |  | < 10 |  |  | 
O=C(O)c1cccc(CN2C(=O)N(Cc3cccc(C(=O)O)c3)C(Cc3ccccc3)C(O)C(O)C2Cc2ccccc2)c1 (centres unmarked) [Example 6A] |  |  |  |  | > 8.00 | +++ (+++=<10 μg/mL)
COc1ccc(CN2C(=O)N(Cc3ccc(OC)cc3)C(Cc3ccccc3)C(O)C(O)C2Cc2ccccc2)cc1 (centres unmarked) [Example 6M] |  |  |  |  | 6.00 to 8.00 | +++ (+++=<10 μg/mL)
C=CCN1C(=O)NC(Cc2ccccc2)C(O)C(O)C1Cc1ccccc1 (centres unmarked) [Example 5A] | < 6.00 | 180 to 182 °C |  |  |  | 
CCCCN1C(=O)N(CC2CCCC2)C(Cc2ccccc2)C(O)C(O)C1Cc1ccccc1 (centres unmarked) [Example 6J] | > 8.00 |  | < 10 |  |  | 
O=C1N(Cc2ccc(Cl)cc2)C(Cc2ccccc2)C(O)C(O)C(Cc2ccccc2)N1Cc1ccc(Cl)cc1 (centres unmarked) [Example 6U] | > 8.00 |  | < 10 |  |  | 
O=C1c2ccccc2C(O)C(O)c2ccccc21 (centres unmarked) [Example 26A, 5H-dibenzo [A,D] cyclohepten-5-one-10,11-dihydro-10, 11-diol] | < 6.00 | 107.5 to 108 °C and 107.5 to 107.9 °C |  |  |  | 
